Laboratory results taken from paper PMC7582918, “A short peptide of the C-terminal class Y helices of apolipoprotein A-I has preserved functions in cholesterol efflux and in vivo metabolic control” (Scientific Reports, 2020).

Assays:
[1] = test system: J774 macrophages; conditions: previously described; cited from earlier work
Protocol: To analyze this, cultured J774 macrophages were loaded with isotope-labelled cholesterol, followed by incubation with RG33 (LF or LB) at specified concentrations for 2 h (Fig. 3a).

[2] = previously shown; cited from earlier work
Description: Circular dichroism (CD) spectroscopy (Fig. 2a) was next used to assay for peptide integrity and secondary structure. The helical content of the RG33 peptide in solution was based on the CD data and estimated to be on average 31%. This is higher than the helical content of the 190–243 ApoA-I peptide which was previously shown to be in the range of 17–21% alpha-helix[11]. A high helical content combined with an amphipathic arrangement of the helices is important for the lipid-binding function. Indeed, the binding of lipids induces formation of amphipathic helixes of the ApoA-I protein[23]. In li ...

[3] = rHDL formation / solubilization of DMPC multilamellar vesicles, dynamic light scattering; conditions: 100 nm DMPC MLVs, 4 days at 24 °C, DLS
Protocol: 1,2-Dimyristoyl-sn-glycero-3-phosphocholine (DMPC; Avanti Polar Lipids) was formed into 100 nm multilamellar vesicles (MLV) via extrusion using the LiposoFast system (Avestin) as previously described. MLV were incubated with RG33 at indicated ratios for 4 days at 24 °C to form rHDL. The resulting particle sizes were measured by Dynamic Light Scattering using a Zetasizer APS (Malvern Instruments).
Figure 2 Peptide structure and lipid complex formation activity of RG33. (a) Circular dichroism spectroscopy of RG33 dissolved in PBS at 0.2 mg/ml. This spectrum represents the average of five measurements using five separate solutions. (b) Helical wheel analysis of residues 209 to 241 of the ApoA-I protein. One-letter code for amino acids is used and numbered 1 to 33 with start at residue 209. (c) rHDL particles were prepared by incubating the MLVs with RG33 peptide in the molar ratios noted at 24 °C for four days. Particle size distribution was analysed by DLS and frequency curves generated for RG33. Both MLVs alone (data on pure 100 nm MLVs is adapted from[15]) and lipid-free peptide are included as controls. GraphPad Prism (version 8.0) (www.graphpad.com) was used. Data represents five individual experiments.
As described above, the amphipathic organization of the RG33 peptide is expected to promote efficient lipid-binding. […]

[4] = Stability in PBS (LC-MS up to 90 min; LC-UV up to 168 h); type: physicochemical
Protocol: (§1) Mouse CD-1 plasma (heparin) was from Novakemi AB. Analysis was performed using LC–MS/MS, a Sciex QTRAP 6500 coupled to a Waters Acquity LC system with an attached HSS T3 2 × 50 mm column. A 5%-100% acetonitrile gradient and 0.1% formic acid was used as mobile phase.
(§2) A 33-mer peptide (RG33) that corresponds to the two Class Y helices (11 and 22 residues, respectively) of the C-terminal domain of ApoA-I (corresponding to regions 209–219 and 220–241 of ApoA-I, respectively) was synthesized and chemically modified at the termini for increased stability (Fig. 1a), and analyzed by SDS-PAGE (Fig. 1b; Suppl. Fig.). Such modifications are known to lead to loss of the terminal charges of the modified peptide with potential reduction in solubility. […] Moreover, the stability of the peptide was tested by incubation for up to 90 min in either PBS or human or mouse plasma followed by LC–MS analysis of the peptide in the complex mixture, or for longer time periods (up to 168 h at 5 °C or 22 °C) in PBS followed by LC-UV analysis of the pure peptide. […] The extent of degradation in plasma was assumed not to affect the in vitro and in vivo analyses made herein. Nevertheless, while not needed for the current study, further modifications aimed at prolonging the half-life of the RG33 peptide in plasma would be beneficial for therapeutic uses.
(§3) Figure 1 Peptide characterization for RG33. (a) Full peptide sequence. (b) Peptide purity as shown by Tris/Tricine SDS PAGE visualized by coomassie staining, 5 μg/well. (c) Stability of native or refolded RG33 over time in phosphate buffer, human plasma or mouse plasma. GraphPad Prism (version 8.0) (www.graphpad.com) was used. TEXT PRINTED IN THE PICTURE: (a) RG33: MW (g/mol): 3790.42; Solubility: > 3.0 mg/ml

[5] = Solubility of the peptide; type: physicochemical; conditions: peptide chemically modified at the termini
Description: as §2
as §3, with “TEXT PRINTED IN THE PICTURE: (a) RG33: MW (g/mol): 3790.42; Solubility: > 3.0 mg/ml” left out

[6] = Stability in human plasma (LC-MS/MS); type: in vitro ADME; conditions: human plasma (citrate), pooled from four donors, incubation up to 90 min
Protocol: Peptide (lyophilized powder) produced by Red Glead AB (Lund, Sweden) was reconstituted as previously described. Peptide concentration was determined using a NanoDrop 2000c spectrophotometer (Thermo Scientific), and integrity was analysed by Tris-Tricine SDS-PAGE followed by Coomassie staining and by circular dichroism spectroscopy (CD). CD spectra were acquired on a Jasco J-810 spectropolarimeter equipped with a Jasco CDF-426S Peltier, set to 25 °C[18]. Samples were loaded into a 1 mm quartz cuvette and CD spectra acquired at 25 °C in the far-UV range 200–260 nm, with a 1 nm wavelength increment. Averages of five scans were baseline-subtracted (PBS buffer; 25 mM phosphate, 150 mM NaCl) and the alpha-helical content was calculated from the molar ellipticity at 222 nm as previously described[11],[19]. Human plasma (citrate) was from Blodcentralen at the Uppsala academic hospital and pooled from four healthy volunteer blood donors after giving informed consent for general research use. […]
A 33-mer peptide (RG33) that corresponds to the two Class Y helices (11 and 22 residues, respectively) of the C-terminal domain of ApoA-I (corresponding to regions 209–219 and 220–241 of ApoA-I, respectively) was synthesized and chemically modified at the termini for increased stability (Fig. 1a), and analyzed by SDS-PAGE (Fig. 1b; Suppl. Fig.). […]

[7] = Stability in mouse plasma (LC-MS/MS); type: in vitro ADME; conditions: mouse CD-1 plasma (heparin), incubation up to 90 min
Protocol: as §1, §2
Figure 1 Peptide characterization for RG33. […]

Row | Substance | Fold increase in Vmax, LB vs LF [1] | Helical content (alpha-helix) [2] | Solubilization of DMPC MLVs at 1:50 peptide-to-lipid molar ratio [3] | Stability in PBS, shorter incubation ([4]; PBS (phosphate buffer), incubation up to 90 min, LC-MS analysis) | Stability in PBS, longer storage at 5 °C ([4]; PBS, up to 168 h (a week) at 5 °C, LC-UV analysis of the pure peptide, data not shown) | Stability in PBS, longer storage at 22 °C ([4]; PBS, up to 168 h (a week) at 22 °C, LC-UV analysis of the pure peptide, data not shown) | Solubility [5] [µg/mL] | Stability in human plasma [6] | Stability in mouse plasma [7]
1 | RG54: Peptide corresponding to amino acid residues 190–243 of ApoA-I protein (AEYHAKATEHLSTLSEKAKPALEDLRQGLLPVLESFKVSFLSALEEYTKKLNTQ; UniProt P02647 214-267, looked up, fragment) | twofold increase | 17–21% | – | – | – | – | – | – | –
2 | Ac-PALEDLRQGLLPVLESFKVSFLSALEEYTKKLN-NH2 [RG33] | – | – | only partial solubilization | intact | intact | intact | > 3000 | some degradation | some degradation
